These results are taken from patent US5959109A, “Compounds and methods for increasing endogenous levels of corticotropin-releasing factor” (Neurocrine Biosciences, Inc., priority 1996, dated 1999).

Read-outs that look alike come from different tables or passages of the source. Some results are limits rather than exact numbers.

Test [1] addresses T1, human recombinant CRF-BP (Homo sapiens, UniProt P24387).
T1 construct: made in house
T1 sequence (P24387 25-322): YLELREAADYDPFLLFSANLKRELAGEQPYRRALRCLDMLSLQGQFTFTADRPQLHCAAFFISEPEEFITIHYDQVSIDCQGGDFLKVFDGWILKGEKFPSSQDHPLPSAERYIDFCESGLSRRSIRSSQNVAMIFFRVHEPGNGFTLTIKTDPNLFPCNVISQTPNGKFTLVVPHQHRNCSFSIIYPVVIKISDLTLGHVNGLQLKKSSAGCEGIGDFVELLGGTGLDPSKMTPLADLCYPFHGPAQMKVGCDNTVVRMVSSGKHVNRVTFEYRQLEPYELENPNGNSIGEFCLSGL
Put plainly: LIRMA: displacement of 125I-h/rCRF from CRF-BP, Ki. It counts as binding. On the procedure: In LIRMA CRF-BP isolated from brain tissue, serum, or cells expressing a recombinant form, is added to wells of a 96-well plate, to small polypropylene microfuge tubes, or to glass borosilicate tubes in a binding buffer (0.02% NP-40 in 50 mM phosphate-buffered saline). ^125 I-h/rCRF (New England Nuclear) and the candidate ligand inhibitor at 10 μM are added and the reaction is incubated for 1 hour at room temperature. An appropriately diluted anti-CRF-BP antibody, such as a rabbit anti-hCRF-BP (Potter et al., Proc. Natl. Acad. Sci. USA 89:4192-4196, 1992) is added to each tube, and after further incubation, bound complexes are precipitated by the further addition of a goat anti-rabbit antibody. The precipitate containing ^125 I-CRF is collected by centrifugation and the amount of radioactivity in the pellet is determined by a gamma counter. If the candidate ligand inhibitor displaces CRF from CRF-BP, the pellets will contain less radioactivity in comparison to controls in which no candidate peptide is added. Maximum inhibition (i.e., 100%) of the binding of ^125 I-h/rCRF to the CRF-BP is defined by the amount of radioactivity left in the pellets after incubation with 10 μM of the CRF-BP peptide ligand h/rCRF (6-33). Thus, the binding potency of the candidate ligand inhibitor will be measured relative to the potency of the standard h/rCRF (6-33).
Thus, a ligand having a Ki of less than that of hCRF will bind more strongly to hCRF-BP than will hCRF itself, and a ligand having a higher value will have a relatively lower binding affinity.
The assay is performed in 600 μl polypropylene microfuge tubes or a 96-well plate. First, 50 μl of a 250 ng/ml of purified recombinant CRF-BP is added to 150 μl of PBS binding buffer (50 mM sodium phosphate, 0.15M NaCl, and 0.02% NP-40). Next, ^125 I-h/r CRF at a final concentration of 200 pM and 50 μl of a 10-100 μM concentration of the ligand inhibitor are added and incubated for 1 hour at room temperature. To the reaction, 50 μl of anti-CRF-BP antibody, 5144, diluted 1:1000 with assay buffer is added to each tube and allowed to bind for a further 1 hour at room temperature. The total volume in all tubes is adjusted to 300 μl with assay buffer. Bound complexes are precipitated by the addition of 200 μl of preprecipitated goat anti-rabbit (GAR) second antibody at 1:20 in 1% normal rabbit serum, 4% PEG, 50 mM sodium phosphate, 0.1% sodium azide, followed by incubation for 1 hour at room temperature. The antibody-bound ^125 I-CRF precipitate is then collected by centrifugation (3000×g) at 4° C. for 20 minutes in a Beckman GS-15R centrifuge. Using a Beckman Biomer 1000 robotic workstation, the tubes are aspirated and washed once with 600 μl of PBS plus 0.02% NP-40. Tubes containing the pellets are then transferred to 12×74 mm counting tubes and counted in a gamma counter.
Inhibitory binding affinity constant (Ki) values are determined using the method of Munson et al., Anal. Biochem. 107:220, 1980.

Test [2] relates to human CRF-BP. The note with it: cited from earlier work.
[3] abbreviates: read-out: inhibitory binding affinity constant (Ki).
The mark [4] stands for this setting: inhibitory binding affinity constant (Ki).

For the compound `O=c1oc2ccc(Cl)cc2c(O)c1C=NC(=S)Nc1ccc(Cl)cc1` [Compound 1, 3-(p-chlorophenyl)thioureidomethylene-4-oxo-6-chloro-coumarin], in test [1] (setting [3]), the Ki is below 50 nM. Take `O=c1oc2ccc(Cl)cc2c(O)c1C=NC(=S)Nc1ccc(Cl)c(Cl)c1` [Compound 2]: the Ki in test [1] (setting [3]) was below 50 nM. Still for that read-out and setting: to `O=c1oc2ccc(Cl)cc2c(O)c1C=NC(=S)Nc1ccc(C(F)(F)F)cc1` [Compound 6] belongs below 50 nM. For `O=c1oc2ccc(Cl)cc2c(O)c1C=NC(=S)Nc1c(Cl)cc(Cl)cc1Cl` [Compound 7], the Ki in test [1] (setting [3]) was below 50 nM. As to `O=c1oc2ccc(Cl)cc2c(O)c1C=NC(=S)Nc1ccc(C2CCCCC2)cc1` [Compound 10], in test [1] (setting [3]), the Ki was below 50 nM. Regarding `O=c1oc2ccc(Cl)cc2c(O)c1C=NC(=S)Nc1ccc(-c2ccccc2)cc1` [Compound 19], the Ki in test [1] (setting [3]) is below 50 nM. Same read-out and setting: to `O=c1oc2ccc(Cl)cc2c(O)c1C=NC(=S)Nc1ccccc1-c1ccccc1` [Compound 20] belongs below 50 nM; to `O=c1oc2ccc3ccccc3c2c(O)c1C=NC(=S)Nc1ccc(Cl)cc1` [Compound 29], below 100 nM; to `O=c1oc2c(Cl)cccc2c(O)c1C=NC(=S)Nc1ccc(Cl)cc1` [Compound 31], below 50 nM. On the same count and under the same terms, under `O=c1oc2c(Cl)cc(Cl)cc2c(O)c1C=NC(=S)Nc1ccc(Cl)cc1` [Compound 32] stands below 50 nM. Still for that read-out and setting: under `O=c1oc2ccc(Cl)cc2c(O)c1C=Nc1nc2c(Cl)cccc2s1` [Compound 36] stands below 50 nM; under `COc1cccc2sc(N=Cc3c(O)c4cc(Cl)ccc4oc3=O)nc12` [Compound 40], below 100 nM; under `O=c1oc2cc(Cl)ccc2c(O)c1C=Nc1nc2c(Cl)cccc2s1` [Compound 44], below 50 nM.

Regarding `O=c1oc2cc(Cl)ccc2c(O)c1C=Nc1nc2ccc(Cl)cc2s1` [Compound 45], in test [1] (setting [3]), the Ki was below 50 nM. For the compound `CCn1c(O)c(C=NC(=S)Nc2c(Cl)cc(Cl)cc2Cl)c(=O)n(CC)c1=S` [Compound 49], the Ki in test [1] (setting [4]) was below 100 nM. Still for that read-out and setting: to `O=c1c(C=NC(=S)Nc2ccc(Cl)cc2)c(O)n(Cc2ccccc2)c(=S)n1Cc1ccccc1` [Compound 53] belongs below 100 nM; to `CCCn1c(O)c(C=NC(=S)Nc2ccc(Cl)cc2)c(=O)n(CCC)c1=S` [Compound 54], below 100 nM. For the compound `CCn1c(=O)c(C=Nc2nc3ccccc3[nH]2)c(O)n(CCc2ccccc2)c1=S` [Compound 58-1], the Ki in test [1] (setting [3]) was below 100 nM. Consider `CCn1c(O)c(C=Nc2nc3ccccc3[nH]2)c(=O)n(CC)c1=S` [Compound 58], for which the Ki in test [1] (setting [4]) is below 50 nM. `CCn1c(O)c(C=Nc2nc3c(C)cccc3s2)c(=O)n(CC)c1=S` [Compound 72]: in test [1] (setting [4]), the Ki is below 100 nM. `CCn1c(=O)c(C=Nc2nc3c(OC)cccc3s2)c(O)n(CCc2ccccc2)c1=S` [Compound 73-1]: the Ki in test [1] (setting [4]) was below 100 nM.

As to `CCn1c(O)c(C=Nc2nc3c(OC)cccc3s2)c(=O)n(CC)c1=S` [Compound 73], the Ki in test [1] (setting [4]) is below 50 nM. For the compound `CCn1c(O)c(C=Nc2nc3ccc(Cl)cc3s2)c(=O)n(CC)c1=S` [Compound 74], the Ki in test [1] (setting [4]) was below 100 nM.

As for `CCn1c(=O)c(C=Nc2nc3ccc(C)cc3s2)c(O)n(CCc2ccccc2)c1=S` [Compound 75-1], the Ki in test [1] (setting [4]) is below 100 nM. Still for that read-out and setting: to `CCn1c(O)c(C=Nc2nc3ccc(C)cc3s2)c(=O)n(CC)c1=S` [Compound 75] belongs below 50 nM. Same read-out and setting: under `CCn1c(=O)c(C=Nc2nc3ccc(OC)cc3s2)c(O)n(CCc2ccccc2)c1=S` [Compound 76-1] stands below 100 nM; under `CCn1c(O)c(C=Nc2nc3ccc(OC)cc3s2)c(=O)n(CC)c1=S` [Compound 76], below 50 nM; under `CCn1c(O)c(C=Nc2nc3ccc([N+](=O)[O-])cc3s2)c(=O)n(CC)c1=S` [Compound 79], below 100 nM. For `CCn1c(O)c(C=Nc2nc3c(C(F)(F)F)cccc3s2)c(=O)n(CC)c1=S` [Compound 80], in test [1] (setting [4]), the Ki is below 100 nM.

For `CCn1c(O)c(C=Nc2nc3cc([N+](=O)[O-])ccc3s2)c(=O)n(CC)c1=S` [Compound 82], the Ki in test [1] (setting [4]) was below 50 nM. Same read-out and setting: to `CCn1c(=O)c(C=Nc2nc3cc(C)c(C)cc3[nH]2)c(O)n(CCc2ccccc2)c1=S` [Compound 85-1] belongs below 50 nM.

For `CCn1c(O)c(C=Nc2nc3cc(C)c(C)cc3[nH]2)c(=O)n(CC)c1=S` [Compound 85], in test [1] (setting [4]), the Ki is below 50 nM. On the same count and under the same terms, to `CCn1c(O)c(C=Nc2nc3cc(C)ccc3[nH]2)c(=O)n(CC)c1=S` [Compound 86] belongs below 50 nM. With `CCn1c(=O)c(C=Nc2nc3c(Cl)cccc3s2)c(O)n(CCc2ccccc2)c1=S` [Compound 95-1], the Ki in test [1] (setting [4]) is below 100 nM. On the same count and under the same terms, under `O=c1c(C=Nc2nc3ccccc3[nH]2)c(O)n(CCc2cccs2)c(=S)n1CCc1cccs1` [Compound 97] stands below 50 nM; under `CCCn1c(O)c(C=Nc2nnc(C)s2)c(=O)n(CCC)c1=S` [Compound 103], below 100 nM; under `CCn1c(=O)c(C=Nc2nnc(C(F)(F)F)s2)c(O)n(CCc2ccccc2)c1=S` [Compound 104-1], below 100 nM.

In the case of `CCn1c(O)c(C=Nc2nnc(C(F)(F)F)s2)c(=O)n(CC)c1=S` [Compound 104], in test [1] (setting [4]), the Ki is below 100 nM. As for `O=c1c(C=Nc2nnc(C(F)(F)F)s2)c(O)n(Cc2ccccc2)c(=S)n1Cc1ccccc1` [Compound 105], the Ki in test [1] (setting [4]) is below 100 nM. As for `CCCn1c(O)c(C=Nc2nnc(C(F)(F)F)s2)c(=O)n(CCC)c1=S` [Compound 106], in test [1] (setting [4]), the Ki was below 100 nM. Same read-out and setting: under `CCn1c(=O)c(C=Nc2nncs2)c(O)n(CCc2ccccc2)c1=S` [Compound 110-1] stands below 50 nM; under `O=c1c(C=Nc2nncs2)c(O)n(Cc2ccccc2)c(=S)n1Cc1ccccc1` [Compound 111], below 50 nM. On the same count and under the same terms, to `CCSc1nnc(N=Cc2c(O)n(Cc3ccccc3)c(=S)n(Cc3ccccc3)c2=O)s1` [Compound 115] belongs below 100 nM; to `CCCn1c(O)c(C=Nc2nnc(SCC)s2)c(=O)n(CCC)c1=S` [Compound 116], below 100 nM; to `CCn1c(=O)c(C=Nc2ncc(C)s2)c(O)n(CCc2ccccc2)c1=S` [Compound 117-1], below 100 nM. `Cc1cnc(N=Cc2c(O)n(Cc3ccccc3)c(=S)n(Cc3ccccc3)c2=O)s1` [Compound 118]: the Ki in test [1] (setting [4]) was below 50 nM. On the same count and under the same terms, under `CCCCCCCCCCCCCCCCSc1nnc(N=Cc2c(O)n(Cc3ccccc3)c(=S)n(Cc3ccccc3)c2=O)s1` [Compound 121] stands below 50 nM; under `CCn1c(=O)c(C=Nc2nc(N(Cc3ccccc3)c3ccccc3)ns2)c(O)n(CCc2ccccc2)c1=S` [Compound 131-1], below 50 nM.

With `O=c1c(C=Nc2nc(N(Cc3ccccc3)c3ccccc3)ns2)c(O)n(Cc2ccccc2)c(=S)n1Cc1ccccc1` [Compound 132], in test [1] (setting [4]), the Ki is below 50 nM. As to `CCCn1c(O)c(C=Nc2nc(N(Cc3ccccc3)c3ccccc3)ns2)c(=O)n(CCC)c1=S` [Compound 133], in test [1] (setting [4]), the Ki is below 50 nM. On to `O=c1c(C=Nc2ncc(Br)s2)c(O)n(Cc2ccccc2)c(=S)n1Cc1ccccc1` [Compound 140], for which the Ki in test [1] (setting [4]) is below 100 nM.

With `CCCn1c(O)c(C=Nc2nnc(CC)s2)c(=O)n(CCC)c1=S` [Compound 150], the Ki in test [1] (setting [4]) was below 100 nM.

`Cc1cnc(N=Cc2c(O)n(Cc3cccs3)c(=S)n(Cc3cccs3)c2=O)s1` [Compound 157]: the Ki in test [1] (setting [4]) was below 50 nM.

Regarding `CCCn1c(O)c(C=Nc2nc3c(s2)CCC3)c(=O)n(CCC)c1=S` [Compound 172], the Ki in test [1] (setting [4]) is below 50 nM. “oCRF: the standard oCRF, which is arbitrarily considered as 1.0”: in test [2], the “affinity for CRF-BP” value is “low affinity”. Take sauvagine: the “affinity for CRF-BP” value in test [2] was “bind CRF-BP with high affinity”.
